Reference: publication PMC6715681, “A high-throughput screen to identify novel synthetic lethal compounds for the treatment of E-cadherin-deficient cells” (Scientific Reports, 2019)
Marks after values point to notes of the source that are not given here.

Legend:
[1] = system: MCF10A WT and MCF10A CDH1^−/− cells; experiment: Single-point confirmation screen (10 μM, CTB, 384-well), viability differential between isogenic lines; type: cell-based, human; details: averaged between three biological replicates, Supplementary Table 2
Experimental: In the single-point confirmation screen, compounds that preferentially harm MCF10A CDH1^−/− cells compared to the wild-type cells were now identified. Three biological replicates were performed for each of the isogenic cell lines at a single-point (10 μM) in 384-well plates. All assay plates had acceptable Z’ values above 0.4 and 23 out of 48 plates had values above 0.6. The POC R^2 correlation between the three biological replicates for the two isogenic cell lines were all above 0.8 (data not shown). A cell viability differential of ‘MCF10A WT POC – MCF10A CDH1^−/− POC’ was used to select hits. An arbitrary threshold for the mean differential of >8.5% was chosen in order to maximize the number of hits being screened in the subsequent stages and to reduce false negatives.
To incorporate a measure of the variability between replicates of the screen into the hit selection process, a further requirement was included of a minimum of 2/3 biological replicates having viability differentials >8.5%. This removed a further 52 compounds shown in blue with only one out of three biological replicates crossing the Y = X-8.5 line independent of the mean. In total, 256 compounds were above the hit selection threshold, thereby preferentially killing E-cadherin negative cells. The mean POC differential of the 256 hits was 17.6% +/− 7.1 (+/−SD), with the highest being 48% for SLEC-1 (Synthetic Lethal E-Cadherin compound 1). […] The resulting 256 SL compounds were then assayed in an 11-point screen for EC50 determination.
(§1) MCF10A WT and MCF10A CDH1^−/− cells were seeded into Corning black walled, clear bottom 384-well plates (assay plates) using a multidrop 384 reagent dispenser (Thermo Fisher Scientific) and a total volume of 50 μL per well.
As we have shown MCF10A CDH1^−/− cells have a prolonged lag to log phase growth of around 24 hours, in order to achieve a similar confluence at 72 hours post seeding MCF10A WT and MCF10A CDH1^−/− cell lines were seeded at 600 cells/well and 800 cells/well, respectively. […] At 72 hours post seeding, plates were removed from the incubator and left for 30 minutes at RT to equalise the temperature across all wells of the plates and reduce fluorescence-based edge effects before reading on an EnVision (PerkinElmer) at 550 nm excitation and 590 nm emission to quantify cell viability.
The coRFU values were then used to calculate the normalized readouts of percent of controls (Eq. 3) and the robust Z score (Eqs 4,5), where doxorubicin refers to an EC80 dose and DMSO was 0.2% v/v.3 coPOC=100×(SamplecoRFU−x¯doxorubicincoRFU)/(x¯DMSOcoRFU−x¯doxorubicincoRFU) 4 MAD=median([…]) 5 CorrectedrobustZscore=(SamplecoRFU−platemediancoRFU)/MAD

[2] = system: MCF10A CDH1^−/− cells; experiment: 11-point dose-response screen, cell titre blue (CTB) viability; type: cell-based, human; details: for Differential at 20 μM: MCF10A WT – MCF10A CDH1−/− POC at 20 μM; for EC50: Homo sapiens, MCF-10A
Experimental: (§2) The 11-point dose-response screen evaluated a concentration range from 0.02 µM to 20 µM for both isogenic cell lines in duplicate biological replicates (Fig. 4). One limitation to metabolism-based cellular assays is that a change in read out (fluorescence, luminescence or absorbance) may not necessarily be caused by cell death and could instead result from a cessation of proliferation due to senescence or inhibited mitochondrial respiration. For this reason, a direct measurement of cell counts using cellular imaging of nuclei stained with Hoechst 33342 was also included at the 11-point screening stage. For the CTB 11-point screen all plates had acceptable Z’ values above 0.4, with the second biological replicate having 70% above 0.6 (Fig. 4A). The Z’ values for the high-content imaging (HCI) 11-point screen plates were above 0.4 for MCF10A WT, except one plate from biological replicate two with 0.396 (Fig. 4B). However, for MCF10A CDH1^−/− HCI data, only four plates were above a Z’ of 0.4 and the mean Z’ was 0.32 compared to a mean of 0.51 for MCF10A WT. A further quality metric known as the strictly standardized mean difference (SSMD)[40] is a less conservative approach for QC and a cut-off of >3 is generally used. The mean SSMD value was 7.04 for MCF10A WT and 5.27 for MCF10A CDH1^−/− plates and indicates the MCF10A CDH1^−/− HCI data was acceptable[41]. There was a good correlation between the top hits from the HCI and CTB 11-point screening with an overlap of 31 / 40 for the top 40 compounds selected from the eventual hit selection strategies.
as §1
(§3) As we have shown MCF10A CDH1^−/− cells have a prolonged lag to log phase growth of around 24 hours, in order to achieve a similar confluence at 72 hours post seeding MCF10A WT and MCF10A CDH1^−/− cell lines were seeded at 600 cells/well and 800 cells/well, respectively. Following seeding, plates were left for one hour at RT without stacking[46] and then centrifuged at 500 × g (RCF) for one minute. Plates were then transferred to an incubator at 37 °C and 5% CO2. At 24 hours post seeding, the MiniTrak robotic liquid handling system (Perkin Elmer) was used to transfer 352 compounds per 384-well library plate to the first 22 columns of a 384-well assay plate containing cells to achieve a 10 μM final compound concentration for the pilot, primary and single-point confirmation screens. For the 11-point dose-response screen, compounds were added to columns 1–22, but excluding edge rows A and P of the library plate to reduce edge-effects (Supplementary Fig. 2). The controls of DMSO (0.2% v/v), doxorubicin (EC80) and entinostat (EC50) were added into columns 23–24 of each assay plate (Supplementary Table 1). Cell titre blue[47] was made in-house in sterile PBS from 597 μM resazurin, 78 μM methylene blue, 1 mM potassium hexacyanoferrate (III) and 1 mM potassium hexacyanoferrate (II) trihydrate. At 69 hours post seeding, 16.7% v/v CTB was added to plates and they were incubated at 37 °C for 3 hours (Supplementary Fig. 1). At 72 hours post seeding, plates were removed from the incubator and left for 30 minutes at RT to equalise the temperature across all wells of the plates and reduce fluorescence-based edge effects before reading on an EnVision (PerkinElmer) at 550 nm excitation and 590 nm emission to quantify cell viability.
(§4) Supplementary Table 1. Killing control and SL control effective concentrations.
(§5) Doxorubicin EC80 0.3 µM 0.4 µM
(§6) MCF10A WT cells were seeded at 600/well and MCF10A CDH1-/- cells at 800/well in 384-well plates. Drugs
(§7) were added at 24 hours post seeding and CTB was used as an end-point assay. Concentrations were normalized

[3] = system: MCF10A WT cells; experiment: as above; type: cell-based, human; details: for EC50 / activity at 20 µM: Homo sapiens, MCF-10A; for activity at 20 µM: viability of WT cells at highest concentration 20 μM, read-out: MCF10A WT POC at 20 μM
Experimental: as §2, §1, §3, §4, §5, §6, §7

[4] = system: MCF10A WT cells; experiment: 11-point dose-response screen, high-content imaging (HCI) of Hoechst 33342 nuclei; type: cell-based; details: Homo sapiens, MCF-10A, 11-point screen
Experimental: as §2
(§8) A direct measurement of cell counts using cellular imaging of nuclei was also included at the 11-point screening stage. Plates were fixed, washed and stained using an ELx405 Select deep well washer (BioTek). Media was first aspirated leaving 10 μL/well, then 4% w/v PFA was added and plates left for 15 minutes at RT. Plates were then washed twice with PBS-T, before aspirating all permeabilization buffer and adding Hoechst 33342 (1 μg/mL final) in PBS. Plates were then stored in the dark at 4 °C, until being imaged on a BD Pathway 855. Two 10x images per well were taken and cell counts enumerated using CellProfiler[48].

[5] = system: MCF10A CDH1^−/− cells; experiment: as above; type: cell-based, human; details: Homo sapiens, MCF-10A; 11-point screen, HCI
Experimental: as §2, §8

[6] = system: MCF10A WT cells; experiment: Medium-throughput validation in 96-well plates, Hoechst-33342 nuclei counts (CellProfiler); type: cell-based; details: Homo sapiens, MCF-10A, 96-well validation, at least five concentration points
Experimental: (§9) Cells were seeded into each well of Corning’s black walled, clear bottom 96-well plates with a total volume of 100 μL per well. Edge wells were excluded. Both isogenic cell lines were seeded into the same plate to mitigate plate-to-plate variation. Plates for real-time analysis were transferred to the xCELLigence platform (ACEA Biosciences, USA) or the IncuCyte FLR imaging system (Essen BioScience, USA) as previously described.
(§10) Seventy-two hours post seeding (or 48 hours post compound addition), plates were assayed for cell viability using a one-step cocktail of PFA (0.25% v/v), saponin (0.075% w/v) and Hoechst 33342 (1 μg/ml final) as described previously. CellProfiler was used to enumerate cell counts as previously described.

[7] = system: MCF10A CDH1^−/− cells; experiment: as above; type: cell-based, human; details: for EC50 ratio (MCF10A WT/MCF10A CDH1^−/−) / EC50: 96-well validation; for EC50: Homo sapiens, MCF-10A, Hoechst nuclei counts, at least five concentration points; for Differential at 5 µM (%): normalized cell counts MCF10A WT – MCF10A CDH1^−/−, 96-well, 48 h post compound addition
Experimental: as §9, §10

[8] = 11-point screen (0.02–20 µM), CTB values, averaged between two biological replicates, Supplementary Table 2, read-out: MCF10A CDH1 -/- EC50
[9] = 11-point screen (0.02–20 µM), CTB values, two biological replicates, for EC50 values > 20, a value of 20 was used, read-out: MCF10A WT EC50
[10] = 11-point screen, CTB, read-out: MCF10A CDH1^-/- CTB EC50
[11] = killing control, 384-well, CTB, 11-point curve, 72 hrs post seeding

| Structure (SMILES) | Differential at 1-pt [1] | Differential at 20 μM ([2]; 11-point screen) | EC50 [2, 8] | EC50 [3, 9] | activity at 20 µM ([3]; 11-point screen) | EC50 [2, 10] | EC50 [4] | EC50 [5] | EC50 [6] | EC50 ratio (MCF10A WT/MCF10A CDH1^−/−) [7] | EC50 [7] | Differential at 5 µM (%) [7] | also measured |
| --- | --- | --- | --- | --- | --- | --- | --- | --- | --- | --- | --- | --- | --- |
| COc1ccc2nccc(Nc3cccc(C(C)=O)c3)c2c1 [SLEC-2] | 39.99 | 49.66 | 3.21 µM | 17.7 µM | 42.3% |  |  |  |  |  |  |  |  |
| COc1cc(Cl)c(C)cc1NC(=O)c1ccc(CN2CCCC2)cc1 [SLEC-6] |  |  |  |  |  | 17.3 µM | > 20 µM | 7.79 µM | 22.6 µM | 1.56 | 14.5 µM | 20.78* % | EC50 ([3]; 11-point screen, CTB, read-out: MCF10A WT CTB EC50): > 20 µM |
| COc1cccc2c1C(=O)c1c(O)c3c(c(O)c1C2=O)C[C@@](O)(C(=O)CO)C[C@@H]3O[C@H]1C[C@H](N)[C@H](O)[C@H](C)O1 [Doxorubicin, doxorubicin, reference compound] |  |  |  |  |  |  |  |  |  |  |  |  | EC80, MCF10A CDH1-/- [2, 11]: 0.4 µM; EC80, MCF10A WT [3, 11]: 0.3 µM |
| Nc1ccccc1NC(=O)c1ccc(CNC(=O)OCc2cccnc2)cc1 [Entinostat, entinostat, reference compound] |  |  |  |  |  |  |  |  |  |  |  |  | EC50 ([2]; SL control, 384-well, CTB, 11-point curve, 72 hrs post seeding, read-out: EC50, MCF10A CDH1-/-): 2.4 µM; EC50 ([3]; SL control, 384-well, CTB, 11-point curve, 72 hrs post seeding, read-out: EC50, MCF10A WT): 3.2 µM |
| CCOc1ccc2nc(C)cc(SCC(O)C(=O)O)c2c1 (stereo not shown) [SLEC-20] | 23.81 | 70.17 | 9.38 µM | > 20 µM | 92.9% |  |  |  |  |  |  |  |  |
| COc1ccc2nc(C)cc(NCC(=O)Nc3cccc(C)c3C)c2c1 [SLEC-12] | 13.92 | 65.85 |  | 19.4 µM | 45% | 3.06 µM | 12.6 µM | 2.45 µM | 13 µM | 1.45 | 8.98 µM | 11.47% | EC50 ratio between MCF10A WT and MCF10A CDH1^−/− cells ([2]; 11-point screen, value corresponds to the CTB EC50s of Fig. 5): 6.34 fold change |
